Source: article PMC8859984 (Journal of medicinal chemistry, 2020)
“Also recorded” adds a separate entry of the source.

Columns and labels:
H3K27me3 = assay: Pharmacodynamic analysis of H3K27me3 in KARPAS422 xenograft tumor tissue; type: in vivo, SCID mice; conditions: single 100 mg/kg oral administration, 24 h, Western blotting
[1] = system: KARPAS422 xenograft model; assay: Antitumor activity in the KARPAS422 xenograft model; type: in vivo, SCID mice; conditions: for tumor regression in KARPAS422 xenograft model: 50 and 100 mg/kg via oral gavage, daily for 28 days
KARPAS422 cell tumor = conditions: 300 mg/kg twice daily via oral gavage; cited from earlier work
tumor growth = conditions: 300 mg/kg twice a week subcutaneous injections for 5 weeks; cited from earlier work
[2] = Animal body weights during the KARPAS422 xenograft efficacy experiment; type: in vivo, SCID mice; conditions: 50 and 100 mg/kg oral gavage daily for 28 days
EED (1–441)-His protein = EED (1–441)-His protein (Homo sapiens, UniProt O75530); assay: EED-H3K27me3 peptide competition binding assay by AlphaScreen; conditions: vs compound 21
Chain of EED (1–441)-His protein (O75530 whole entry): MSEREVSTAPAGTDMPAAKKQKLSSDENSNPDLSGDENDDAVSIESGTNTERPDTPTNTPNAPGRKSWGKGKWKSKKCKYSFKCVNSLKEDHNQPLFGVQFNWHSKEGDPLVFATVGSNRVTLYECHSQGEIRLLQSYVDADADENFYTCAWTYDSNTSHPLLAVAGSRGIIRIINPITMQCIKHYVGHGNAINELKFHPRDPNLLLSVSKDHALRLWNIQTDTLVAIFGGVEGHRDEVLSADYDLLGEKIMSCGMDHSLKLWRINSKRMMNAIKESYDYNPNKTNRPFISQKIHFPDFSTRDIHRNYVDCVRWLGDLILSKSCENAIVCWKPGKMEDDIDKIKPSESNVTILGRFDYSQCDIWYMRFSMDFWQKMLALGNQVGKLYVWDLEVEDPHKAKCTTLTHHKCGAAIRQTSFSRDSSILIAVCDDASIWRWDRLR

In the case of `CCOC(=O)c1ncn2c(NCc3cccc4c3CCO4)ncc(-c3ccccc3)c12` [Compound 17, Ethyl 5-(((2,3-Dihydrobenzofuran-4-yl)methyl)amino)-8-phenylimidazo[1,5-c]pyrimidine-1-carboxylate], the “times more potent than 16 in inhibition of cell growth in KARPAS422” value (KARPAS422 cells; vs compound 16) is reported as 30 times.
In the case of `Cc1ccc(-c2cnc(NCc3c(F)ccc4c3CCO4)n3cnc(S(C)(=O)=O)c23)c(C)n1` [Compound 32, 8-(2,6-Dimethylpyridin-3-yl)-N-((5-fluoro-2,3-dihydrobenzofuran-4-yl)methyl)-1-(methylsulfonyl)imidazo[1,5-c]pyrimidin-5-amine], the “level of H3K27me3 in KARPAS422 tumor tissue” value (H3K27me3) is reported as “effectively reduces the level of H3K27me3” and the “tumor regression in KARPAS422 xenograft model” value ([1]; listed as EEDi-1056) is reported as “complete tumor regression”.
For `CS(=O)(=O)c1ccc(-c2cnc(NCc3ccco3)n3cnnc23)cc1` [EED226], the “KARPAS422 cell tumor regression” value (KARPAS422 cell tumor) is given as “complete KARPAS422 cell tumor regression”.
In the case of `CCOC(=O)c1ncn2c(NCc3c(F)cccc3OC)ncc(-c3ccccc3)c12` [Compound 12, Ethyl 5-((2-Fluoro-6-methoxybenzyl)amino)-8-phenylimidazo-[1,5-c]pyrimidine-1-carboxylate], the “times more potent than 11 in cell growth inhibition in KARPAS422” value (KARPAS422 cells; vs compound 11) is reported as 6 times.
In the case of `CN(C)[C@H]1CN(C2CCc3cccc(F)c32)C[C@@H]1c1ccc(N2CCN(S(C)(=O)=O)CC2)cc1` (stereo partly shown) [Compound A-395], the “inhibition of tumor growth” value (tumor growth) is listed as 84%.
For `CS(=O)(=O)c1ncn2c(NCc3c(F)ccc4c3CCO4)ncc(-c3ccc(C4CC4)nc3)c12` [Compound 28, 8-(6-Cyclopropylpyridin-3-yl)-N-((5-fluoro-2,3-dihydrobenzofuran-4-yl)methyl)-1-(methylsulfonyl)imidazo[1,5-c]pyrimidin-5-amine], the “animal weight loss during the entire experiment” value [2] was “minimal weight loss”, the “times more potent than 21 in binding to EED” value (EED (1–441)-His protein) was 3–4 times and the “times more potent than 21 in inhibition of KARPAS422 cell growth” value (KARPAS422 cells; vs compound 21) was 3–4 times. The “level of H3K27me3 in KARPAS422 tumor tissue” value (H3K27me3) was “effectively reduces the level of H3K27me3”, the “tumor regression in KARPAS422 xenograft model” value ([1]; listed as EEDi-5285) was “complete and durable tumor regression; also recorded: complete and long-lasting tumor regression” and the “regrowth of tumors after end of treatment” value ([1]; after treatment had been stopped for 72 days, 50 and 100 mg/kg oral daily for 28 days) was “no regrowth of tumors was observed”.
With `CS(=O)(=O)c1ncn2c(NCc3c(F)ccc4c3CCO4)ncc(-c3ccc(F)cc3)c12` [Compound 24, N-((5-Fluoro-2,3-dihydrobenzofuran-4-yl)methyl)-8-(4-fluorophenyl)-1(methylsulfonyl)imidazo[1,5-c]pyrimidin-5-amine] the “times less potent than 21 in inhibition of KARPAS422 cell growth” value (KARPAS422 cells; vs compound 21) was 2–3 times.
With `CS(=O)(=O)c1ncn2c(NCc3c(F)ccc4c3CCO4)ncc(C3CCOCC3)c12` [Compound 35, N-((5-Fluoro-2,3-dihydrobenzofuran-4-yl)methyl)-1-(methylsulfonyl)-8-(tetrahydro-2H-pyran-4-yl)imidazo[1,5-c]pyrimidin-5-amine] the “times less potent than 21 in binding to EED” value (EED (1–441)-His protein) was 17 times and the “times less potent than 21 in inhibition of KARPAS422 cell growth” value (KARPAS422 cells; vs compound 21) was 24 times.
With `CCOC(=O)c1ncn2c(NCc3ccco3)ncc(-c3ccccc3)c12` [Compound 8, Ethyl 5-((Furan-2-ylmethyl)amino)-8-phenylimidazo[1,5-c]-pyrimidine-1-carboxylate] the “times more potent than 7 in inhibition of cell growth in KARPAS422” value (KARPAS422 cells; vs compound 7) was 2 times.
For `CCOC(=O)c1ncn2c(NCc3cc(OC)ccc3F)ncc(-c3ccccc3)c12` [Compound 13, Ethyl 5-((2-Fluoro-5-methoxybenzyl)amino)-8-phenylimidazo-[1,5-c]pyrimidine-1-carboxylate], the “times less potent than 12 in cell growth inhibition in KARPAS422” value (KARPAS422 cells; vs compound 12) was 8 times.
In the case of `CS(=O)(=O)c1ncn2c(NCc3c(F)ccc4c3CCO4)ncc(-c3ccc(C(F)F)nc3)c12` [Compound 29, 8-(6-(Difluoromethyl)pyridin-3-yl)-N-((5-fluoro-2,3-dihydrobenzofuran-4-yl)methyl)-1-(methylsulfonyl)imidazo[1,5-c]pyrimidin-5-amine], the “times more potent than 21 in binding to EED” value (EED (1–441)-His protein) is reported as 5 times.
For `CCOC(=O)c1ncn2c(NCc3ccccc3)ncc(-c3ccccc3)c12` [Compound 10, Ethyl 5-(Benzylamino)-8-phenylimidazo[1,5-c]pyrimidine-1-carboxylate], the “times less potent than 8 in cellular assay” value (KARPAS422 cells; vs compound 8, KARPAS422) was 2–3 times.
